Where a SMILES comes first, the peptide text is derived from it. The star is where a group is joined. AMC = Cc1cc(=O)oc2cc(N*)ccc12; Cbz = O=C(OCc1ccccc1)*

The assay concerns the target human plasma kallikrein (Homo sapiens, UniProt P03952). In words: Kallikrein inhibition FLINT assay with quenched AMC peptide substrate Z-Gly-Pro-Arg-AMC (end point EP or kinetic KIN reads). It counts as biochemical. Conditions: for IC50: kinetic reads at 5 min intervals over 30 min, read-out: Kallikrein (KIN) IC50. In a few lines:
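Enzyme and compound were preincubated 30 min before adding 50 μM AMC substrate in pH 7.5 Tris/NaCl/CaCl2/BSA/CHAPS buffer. AMC release was read at 30 min endpoint or every 5 min.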

Setting [1] is: peptide substrate of kallikrein, titration data fit to Michaelis-Menten equation.

Chain of human plasma kallikrein (P03952 391-638 limits assumed): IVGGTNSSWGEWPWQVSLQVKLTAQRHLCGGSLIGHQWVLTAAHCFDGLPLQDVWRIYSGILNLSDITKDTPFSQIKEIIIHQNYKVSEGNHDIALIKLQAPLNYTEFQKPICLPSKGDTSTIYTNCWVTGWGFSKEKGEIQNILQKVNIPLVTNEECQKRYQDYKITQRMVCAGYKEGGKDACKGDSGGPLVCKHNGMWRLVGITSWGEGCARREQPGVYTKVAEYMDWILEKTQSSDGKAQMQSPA
Chain of human plasma kallikrein (P03952 20-390 partner limits assumed): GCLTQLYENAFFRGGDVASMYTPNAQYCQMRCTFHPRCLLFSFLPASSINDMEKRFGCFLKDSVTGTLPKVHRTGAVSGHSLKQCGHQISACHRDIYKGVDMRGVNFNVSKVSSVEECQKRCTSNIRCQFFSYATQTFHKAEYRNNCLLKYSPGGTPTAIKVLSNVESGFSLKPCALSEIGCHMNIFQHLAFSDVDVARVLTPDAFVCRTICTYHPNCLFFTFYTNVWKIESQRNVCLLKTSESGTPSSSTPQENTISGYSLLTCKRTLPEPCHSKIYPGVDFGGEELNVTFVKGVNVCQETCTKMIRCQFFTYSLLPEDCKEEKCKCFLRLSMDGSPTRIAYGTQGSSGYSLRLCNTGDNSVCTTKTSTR

For the compound `[O-][n+]1cc(-c2c(-n3cnnn3)ccc(Cl)c2F)ccc1C(Cn1cc(F)cn1)n1cc(-c2ccnc(C(F)(F)F)c2)cn1` (stereo not drawn) [Example P275], the concentration for half-maximal inhibition (IC50) turned out to be 19.1 nM. As to `[2H]C([2H])([2H])n1nccc1-c1cnn([C@@H](CCOC(F)F)c2ccc(-c3c(-n4cnnn4)ccc(Cl)c3F)c[n+]2[O-])c1` [Example P557], the IC50 was 210 nM.

`[O-][n+]1cc(-c2c(-n3cc(Cl)nn3)ccc(Cl)c2F)ccc1[C@@H](Cn1cccn1)n1cc(-c2cnnn2C(F)F)cn1` [Example P685]: the IC50 is 151 nM. Same read-out and setting: as for `COc1cc(C(CC2CC2C(N)=O)n2cc(-c3ccc(N)nc3C)cn2)[n+]([O-])cc1-c1c(-n2cnnn2)ccc(Cl)c1F` (stereo not drawn) [Example P247], the figure is 5.8 nM; as for `Cn1ncnc1-c1cnn(C(CC2CNCCO2)c2ccc(-c3c(-n4cc(C(F)(F)F)nn4)ccc(Cl)c3F)c[n+]2[O-])c1` (stereo not drawn) [Example P934], 326 nM.

For `CN(CC(c1ccc(-c2c(-n3cnnn3)ccc(Cl)c2F)c[n+]1[O-])n1cc(-c2ccncc2)cn1)C(=O)c1ccccc1` (stereo not drawn) [Example P296], the 50% inhibitory concentration (IC50) turned out to be 36.4 nM.

For `O=C(Cc1cnn(CC(c2ccc(-c3c(-n4cnnn4)ccc(Cl)c3F)c[n+]2[O-])n2cc(-c3ccnc(C(F)(F)F)c3)cn2)c1)N1CCCCC1` (stereo not drawn) [Example P475], the IC50 stood at 324 nM. Still for that read-out and setting: as for `COc1cc(C(CC2CC2)n2cc(-c3ccc(N)nc3F)cn2)[n+]([O-])cc1-c1c(-n2cnnn2)ccc(Cl)c1F` (stereo not drawn) [Example P85], the figure is 4.1 nM; as for `O=C(O)C1CCCN(C(=O)C2CC2CC(c2ccc(-c3c(-n4cnnn4)ccc(Cl)c3F)c[n+]2[O-])n2cc(-c3ccccc3)cn2)C1` (stereo not drawn) [Example P224], 591 nM; as for `O=C(C1CC1CC(c1ccc(-c2c(-n3cnnn3)ccc(Cl)c2F)c[n+]1[O-])n1cc(-c2ccncc2)cn1)N1CCC(C2CC2)C1` (stereo not drawn) [Example P254], 376 nM. In the case of `O=C(NC1CC1)c1ccc(-c2cnn(C(CC3CCCCO3)c3ccc(-c4c(-n5cnnn5)ccc(Cl)c4F)c[n+]3[O-])c2)cc1` (single isomer, unassigned) [Example P142], the IC50 came to 108 nM. Consider `[2H]C([2H])([2H])Nc1ccc(-c2cnn(C(CCOC([2H])([2H])[2H])c3ccc(-c4c(-n5cnnn5)ccc(Cl)c4F)c[n+]3[O-])c2)cc1` (stereo not drawn) [Example P278], for which the IC50 is 110 nM.

On to `Cc1cc(=O)oc2cc(NC(=O)[C@H](CCCNC(=N)N)NC(=O)[C@@H]3CCCN3C(=O)CNC(=O)OCc3ccccc3)ccc12` [Z-Gly-Pro-Arg-AMC, reference compound] (Cbz-Gly-Pro-Arg-{AMC}), for which, under setting [1], the Km amounted to 40 µM and the kcat stood at 0.76 s⁻¹.

For `O=C(O)C1CCN(C(=O)c2ccn(CC(c3ccc(-c4c(-n5cnnn5)ccc(Cl)c4F)c[n+]3[O-])n3cc(-c4ccncc4)cn3)n2)CC1` (stereo not drawn) [Example P444], the IC50 worked out at 1.8 nM. For the compound `NC(=O)c1ccc(-c2cnn(C(CN3CCCC3=O)c3ccc(-c4c(-n5cc(C(F)(F)F)nn5)ccc(Cl)c4F)c[n+]3[O-])c2)cc1F` (single isomer, unassigned) [Example P936], the IC50 stood at 397 nM. Still for that read-out and setting: the figure for `COC(C)(C)C[C@H](c1ccc(-c2c(-n3cnnn3)ccc(Cl)c2F)c[n+]1[O-])n1cc(-c2ccnn2C(F)F)cn1` [Example P646] is 506 nM; for `[O-][n+]1cc(-c2c(-n3cnnn3)ccc(Cl)c2F)ccc1C(CC1CC1)n1cc(-c2ncns2)cn1` (stereo not drawn) [Example P525] it is 812 nM; for `NC(=O)c1ccc(-c2cnn(C(CCOC(F)F)c3ccc(-c4c(-n5cc(Cl)nn5)ccc(Cl)c4F)c[n+]3[O-])c2)cc1F` (single isomer, unassigned) [Example P875] it is 2.7 nM. On the same count and under the same terms, as for `[O-][n+]1cc(-c2c(-n3cnnn3)ccc(Cl)c2F)ccc1[C@@H](CCOC(F)F)n1cc(-c2nn(C(F)F)cc2Cl)cn1` [Example P572], the figure is 24.1 nM; as for `[O-][n+]1cc(-c2c(-n3cnnn3)ccc(Cl)c2F)ccc1C(CC1CC1)n1cc(-c2ccncc2)cn1` (single isomer, unassigned) [Example P262], 31.8 nM. Same read-out and setting: the figure for `Cn1ncc(-c2cnn(C(CC3CC3)c3cc(Cl)c(-c4c(-n5cnnn5)ccc(Cl)c4F)c[n+]3[O-])c2)cc1=O` (single isomer, unassigned) [Example P190] is 49.2 nM. Consider `[O-][n+]1cc(-c2c(-n3cnnn3)ccc(Cl)c2F)ccc1C(CC1CC1)n1cc(-c2ccnc(OC(F)F)c2)cn1` (stereo not drawn) [Example P313], for which the IC50 worked out at 151 nM. On the same count and under the same terms, the figure for `COC(=O)Nc1ccc(-c2cnn(C(Cn3cc(F)cn3)c3ccc(-c4c(-n5cnnn5)ccc(Cl)c4F)c[n+]3[O-])c2)cc1` (stereo not drawn) [Example P277] is 13.3 nM. `COCC[C@H](c1ccc(-c2c(C(F)F)ccc(Cl)c2F)c[n+]1[O-])n1cc(-c2ccc(C(=O)O)cc2)cn1` [Example Q34]: the IC50 stood at 50.5 nM.

Take `COC(=O)Nc1ccc(-c2cnn(C(CCO)c3ccc(-c4c(-n5cnnn5)ccc(Cl)c4F)c[n+]3[O-])c2)cc1` (single isomer, unassigned) [Example P218]: the IC50 came to 87.2 nM.

In the case of `Nc1ccc(-c2cnn(C(Cn3cccn3)c3ccc(-c4c(-n5cnnn5)ccc(Cl)c4F)c[n+]3[O-])c2)c(F)n1` (single isomer, unassigned) [Example P315], the IC50 worked out at 51 nM.

With `[O-][n+]1cc(-c2c(-n3cnnn3)ccc(Cl)c2F)ccc1[C@@H](Cc1ccc(C(F)(F)F)nc1)n1cc(-c2cncn2C(F)F)cn1` [Example P785], the IC50 is 32.9 nM. Still for that read-out and setting: the figure for `O=C(c1cnn(CC(c2ccc(-c3c(-n4cnnn4)ccc(Cl)c3F)c[n+]2[O-])n2cc(-c3cc[n+]([O-])cc3)cn2)c1)N1CCCCC1` (stereo not drawn) [Example P292] is 51.3 nM; for `[O-][n+]1cc(F)c(-c2cnn(C(CC3CC3)c3ccc(-c4c(-n5cnnn5)ccc(Cl)c4F)c[n+]3[O-])c2)c(Cl)c1` (stereo not drawn) [Example P518] it is 383 nM; for `COC(=O)Nc1ccc(-c2cnn(C(CC(C)OC)c3ccc(-c4c(-n5cnnn5)ccc(Cl)c4F)c[n+]3[O-])c2)cc1` (single isomer, unassigned) [Example P228] it is 1290 nM. Still for that read-out and setting: the figure for `Cn1ccc(CC(c2ccc(-c3c(C(F)F)ccc(Cl)c3F)c[n+]2[O-])n2cc(-c3ccc(C(=O)O)cc3)cn2)n1` (stereo not drawn) [Example Q49] is 2.3 nM; for `[O-][n+]1cc(-c2c(-n3cnnn3)ccc(Cl)c2F)ccc1C(C(O)c1ccccc1)n1cc(-c2ccnn2C(F)F)cn1` (single isomer, unassigned) [Example P719] it is 516 nM. Turning to `O=C(O)c1ccc(-c2cnn(C(Cc3ccc(Cl)cc3)c3ccc(-c4cc(Cl)ccc4-n4cnnn4)c[n+]3[O-])c2)cc1` (stereo not drawn) [Example P57], the IC50 came to 3.8 nM. Take `[O-][n+]1cc(-c2c(-n3cc(Cl)nn3)ccc(Cl)c2F)ccc1[C@@H](Cn1cc(F)cn1)n1cc(-c2ccnn2C(F)F)cn1` [Example P643]: the half-inhibitory concentration (IC50) was 50.5 nM.

Consider `[O-][n+]1cc(-c2c(-n3cnnn3)ccc(Cl)c2F)ccc1[C@@H](CC1CC1)n1cc(-c2cn(C(F)F)nn2)cn1` [Example P594], for which the half-maximal inhibitory concentration (IC50) was determined as 247 nM. Same read-out and setting: as for `COc1cc(C(CC2CC2C(=O)N2CCCCC2)n2cc(-c3ccc(N)nc3C)cn2)[n+]([O-])cc1-c1c(-n2cnnn2)ccc(Cl)c1F` (stereo not drawn) [Example P248], the figure is 14.9 nM; as for `Cn1nccc1-c1cnn(C(CCOC(F)F)c2ccc(-c3c(-n4cnnn4)ccc(Cl)c3F)c[n+]2[O-])c1` (stereo not drawn) [Example P487], 8.9 nM; as for `[O-][n+]1cc(-c2c(-n3cnnn3)ccc(Cl)c2F)ccc1C(Cc1ccc(F)cc1)n1cc(-c2c(Cl)nnn2C(F)F)cn1` (single isomer, unassigned) [Example P589], 520 nM. On the same count and under the same terms, the figure for `[O-][n+]1cc(-c2c(-n3cnnn3)ccc(Cl)c2F)ccc1[C@@H](Cc1ccn(C(F)F)n1)n1cc(-c2ccnn2C(F)F)cn1` [Example P734] is 6.4 nM; for `O=C(O)c1ccc(-c2cnn(C(CN3CCCC3=O)c3ccc(-c4c(C(F)F)ccc(Cl)c4F)c[n+]3[O-])c2)cc1` (single isomer, unassigned) [Example Q14] it is 3.9 nM. On to `Cn1cc(CC(c2ccc(-c3c(-n4cnnn4)ccc(Cl)c3F)c[n+]2[O-])n2cc(-c3ccnc(C(F)(F)F)c3)cn2)cn1` (stereo not drawn) [Example P452], for which the IC50 came out at 10.8 nM.

On to `COCC[C@H](c1ccc(-c2c(-n3cnnn3)ccc(Cl)c2F)c[n+]1[O-])n1cc(-c2cnnn2C(F)F)cn1` [Example P690], for which the IC50 is 180 nM. Still for that read-out and setting: the figure for `CC1CC1CC(c1ccc(-c2c(-n3cnnn3)ccc(Cl)c2F)c[n+]1[O-])n1cc(-c2ncnn2C(F)F)cn1` (stereo not drawn) [Example P767] is over 100 nM. Regarding `[O-][n+]1ccc(-c2cnn(C(CC3CC3)c3ccc(-c4c(-n5cnnn5)ccc(Cl)c4F)c[n+]3[O-])c2)cc1` (single isomer, unassigned) [Example P280], the IC50 was 84 nM. The same measure, in the same setting: the figure for `[O-][n+]1cc(-c2c(-n3cnnn3)ccc(Cl)c2F)ccc1C(Cn1cccn1)n1cc(-c2ccnc(F)c2)cn1` (stereo not drawn) [Example P309] is 9.2 nM.

`[O-][n+]1cc(-c2c(-n3cnnn3)ccc(Cl)c2F)ccc1[C@@H](CCOC(F)F)n1cc(-c2cncn2C(F)F)cn1` [Example P771]: the IC50 stood at 16.2 nM. On the same count and under the same terms, as for `Cn1ncnc1-c1cnn(C(CC2CC2)c2ccc(-c3c(-n4cc(C(F)(F)F)nn4)ccc(Cl)c3F)c[n+]2[O-])c1` (stereo not drawn) [Example P874], the figure is 41.4 nM; as for `Cc1nc(C(F)(F)F)sc1-c1cnn(C(CC2CC2)c2ccc(-c3c(-n4cnnn4)ccc(Cl)c3F)c[n+]2[O-])c1` (single isomer, unassigned) [Example P961], 85.6 nM. Still for that read-out and setting: as for `[O-][n+]1cc(-c2c(-n3cc(C(F)(F)F)nn3)ccc(Cl)c2F)ccc1C(Cc1ccn(C(F)F)n1)n1cc(-c2ncnn2C(F)F)cn1` (single isomer, unassigned) [Example P837], the figure is 48.3 nM. On the same count and under the same terms, the figure for `N#Cc1cc(-c2cnn(C(Cn3cc(F)cn3)c3ccc(-c4c(-n5cnnn5)ccc(Cl)c4F)c[n+]3[O-])c2)ccn1` (single isomer, unassigned) [Example P454] is 12.6 nM.

As usually defined, the IC50 is the midpoint of a concentration-inhibition curve. The term Km denotes the concentration of substrate that gives half-maximal velocity. One may read the kcat as the maximal rate divided by the concentration of active sites.
